Literature values as cited in patent publication US11291679B1, “Injectable, infusable, instillable ivermectin adjuvant for cancer therapies” (MOUNTAIN VALLEY MD INC., priority 2021, dated 2022).

Key:
[1] = test system: breast tumors

**Q.** With `CCC(C)n1ncn(-c2ccc(N3CCN(c4ccc(OCC5COC(Cn6cncn6)(c6ccc(Cl)cc6Cl)O5)cc4)CC3)cc2)c1=O` (stereo not shown) [itraconazole] as the compound, how does the “variability of cmax in blood plasma levels” value (blood plasma) read?
**A.** 4-5 fold

**Q.** And the “variation across the concentrations in the tumor environment” value (tumor environment)?
**A.** ~15 fold

**Q.** With ivermectin as the compound, how does the “immunogenic cancer cell death and T cell infiltration” value [1] read?
**A.** induces immunogenic cancer cell death (ICD) and robust T cell infiltration into breast tumors

**Q.** What about the “efficacy in vivo (limiting tumor growth)” value ([1]; single agent or combination, synergy p=0.03) of the same compound?
**A.** neither agent alone showed efficacy in vivo
